Assay results taken from patent US20240158446A1, “CYCLIC COMPOUND HAVING SELECTIVE INHIBITORY ACTION ON KRAS OVER HRAS AND NRAS” (CHUGAI SEIYAKU KABUSHIKI KAISHA, priority 2021, published 2024).
Like-named read-outs stand apart in the source and are kept apart here.

Key:
[1] = target: GDP-bound KRAS wild-type protein (Homo sapiens, UniProt P01116); assay: Binding to KRAS by surface plasmon resonance (SPR), Single Cycle Kinetics; details: GDP-bound KRAS wild-type protein, read-out: KRAS KD
[2] = target: GDP-bound HRAS wild-type protein (Homo sapiens, UniProt P01112); assay: Binding to HRAS by surface plasmon resonance (SPR), Single Cycle Kinetics; details: for HRAS/KRAS (ratio of KD value with respect to HRAS to KD value with respect to KRAS) / HRAS/KRAS (ratio of KD value for HRAS to KD value for KRAS): SPR, GDP-bound HRAS wild-type protein vs GDP-bound KRAS wild-type protein
[3] = target: GDP-bound NRAS wild-type protein (Homo sapiens, UniProt P01111); assay: Binding to NRAS by surface plasmon resonance (SPR), Single Cycle Kinetics; details: for NRAS/KRAS (ratio of KD value with respect to NRAS to KD value with respect to KRAS) / NRAS/KRAS (ratio of KD value for NRAS to KD value for KRAS): SPR, GDP-bound NRAS wild-type protein vs GDP-bound KRAS wild-type protein
[4] = SPR Single Cycle Kinetics, 1:1 binding model

Chain of GDP-bound NRAS wild-type protein (P01111 whole entry): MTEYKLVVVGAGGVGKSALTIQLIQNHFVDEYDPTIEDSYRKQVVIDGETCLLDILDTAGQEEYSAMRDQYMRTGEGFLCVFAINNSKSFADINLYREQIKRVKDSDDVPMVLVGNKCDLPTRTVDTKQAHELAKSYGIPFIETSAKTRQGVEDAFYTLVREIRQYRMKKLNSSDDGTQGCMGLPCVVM
Chain of GDP-bound HRAS wild-type protein (P01112 whole entry): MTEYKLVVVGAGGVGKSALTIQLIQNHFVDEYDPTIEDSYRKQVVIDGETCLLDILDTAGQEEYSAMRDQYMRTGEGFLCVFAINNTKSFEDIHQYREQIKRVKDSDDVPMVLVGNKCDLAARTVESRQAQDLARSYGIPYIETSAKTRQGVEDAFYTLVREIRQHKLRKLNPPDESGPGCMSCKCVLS
Chain of GDP-bound KRAS wild-type protein (P01116 whole entry): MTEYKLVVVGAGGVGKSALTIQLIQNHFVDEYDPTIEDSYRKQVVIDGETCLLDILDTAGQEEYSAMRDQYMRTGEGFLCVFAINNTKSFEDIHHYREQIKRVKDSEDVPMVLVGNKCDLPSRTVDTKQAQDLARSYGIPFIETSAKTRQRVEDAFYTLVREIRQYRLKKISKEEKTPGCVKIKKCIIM

## CC[C@H](C)[C@@H]1NC(=O)[C@H](CC)N(C)C(=O)C[C@@H](C(=O)N(C)C)N(C)C(=O)[C@H](C2CCCC2)N(C)C(=O)C2(CCC2)NC(=O)[C@@H]2CCN2C(=O)[C@H](CCc2cc(F)c(C(F)(F)F)c(F)c2)NC(=O)CN(C)C(=O)[C@H](Cc2ccc(C(F)(F)F)cc2)N2CCCC[C@@H](C2=O)N(C)C(=O)CN(C)C1=O [PP0657]
[1]; [4]
  Kd: 0.076 nM
[2]
  HRAS/KRAS (ratio of KD value with respect to HRAS to KD value with respect to KRAS): B (a compound having 3 or more and less than 10 is denoted as B)
[3]
  NRAS/KRAS (ratio of KD value with respect to NRAS to KD value with respect to KRAS): B (a compound having 3 or more and less than 10 is denoted as B)

## CCO[C@@H]1C[C@H]2C(=O)NC3(CCC3)C(=O)N(C)[C@@H](C3CCCC3)C(=O)N(C)[C@H](C(=O)N(C)C)CC(=O)N(C)[C@@H](CC3CCC3)C(=O)N[C@@H]([C@@H](C)CC)C(=O)N(C)CC(=O)N(C)[C@H]3CCCCCN(C3=O)[C@@H](Cc3ccc(C(F)(F)F)cc3)C(=O)N(C)CC(=O)N[C@@H](CCc3cc(F)c(C(F)(F)F)c(F)c3)C(=O)N2C1 [PP0668]
[1]; [4]
  Kd: 0.38 nM
[2]
  HRAS/KRAS (ratio of KD value with respect to HRAS to KD value with respect to KRAS): B (a compound having 3 or more and less than 10 is denoted as B)
[3]
  NRAS/KRAS (ratio of KD value with respect to NRAS to KD value with respect to KRAS): B (a compound having 3 or more and less than 10 is denoted as B)

## CCC[C@H]1C(=O)N[C@@H]([C@@H](C)CC)C(=O)N(C)CC(=O)N(C)[C@H]2C/C=C\CCN(C2=O)[C@@H](Cc2ccc(C(F)(F)F)cc2)C(=O)N(C)CC(=O)N[C@@H](CCc2cc(Cl)c3c(ccn3C)c2)C(=O)N2C[C@H](OCC)C[C@H]2C(=O)NC2(CC(C)(C)C2)C(=O)N(C)[C@@H](C2CCCC2)C(=O)N(C)[C@H](C(=O)N(C)C)CC(=O)N1C [PP2950]
[1]; [4]
  Kd: 0.76 nM
[2]; SPR KD ratio HRAS/KRAS, class symbols
  HRAS/KRAS (ratio of KD value with respect to GDP-bound HRAS wild-type protein to KD value with respect to KRAS): A (a compound having 10 or more and less than 20 is denoted as A)
[3]; SPR KD ratio NRAS/KRAS, class symbols
  NRAS/KRAS (ratio of KD value with respect to GDP-bound NRAS wild-type protein to KD value with respect to KRAS): A (a compound having 10 or more and less than 20 is denoted as A)

## CCO[C@@H]1C[C@H]2C(=O)NC3(CC(C)(C)C3)C(=O)N(C)[C@@H](C(CC)CC)C(=O)N(C)[C@H](C(=O)N(C)C)CC(=O)N(C)[C@@H](C(C)C)C(=O)N[C@@H]([C@@H](C)CC)C(=O)N(C)CC(=O)N(C)[C@H]3C/C=C\CCN(C3=O)[C@@H](Cc3ccc(C(F)(F)F)cc3)C(=O)N(C)CC(=O)N[C@@H](CCc3ccc(C(F)(F)F)c(Cl)c3)C(=O)N2C1 [PP2140]
[1]; SPR, Single Cycle Kinetics
  Kd: 0.7 nM
[2]
  HRAS/KRAS (ratio of KD value for HRAS to KD value for KRAS): A (a compound having 10 or more and less than 20 is denoted as A)
[3]
  NRAS/KRAS (ratio of KD value for NRAS to KD value for KRAS): AA (a compound having 20 or more is denoted as AA)

## CC[C@H](C)[C@@H]1NC(=O)[C@H](C2CCC2)N(C)C(=O)C[C@@H](C(=O)N(C)CC)N(C)C(=O)[C@H](C2CCCC2)N(C)C(=O)C2(CCC2)NC(=O)[C@@H]2C[C@H](C)CN2C(=O)[C@H](CCc2ccc(C(F)(F)F)c(OC)c2)NC(=O)CN(C)C(=O)[C@H](Cc2ccc(C(F)(F)F)cc2)N2CC/C=C\C[C@@H](C2=O)N(C)C(=O)CN(C)C1=O [PP2071]
[1]; SPR, Single Cycle Kinetics
  Kd: 0.1 nM
[2]
  HRAS/KRAS (ratio of KD value for HRAS to KD value for KRAS): A (a compound having 10 or more and less than 20 is denoted as A)
[3]
  NRAS/KRAS (ratio of KD value for NRAS to KD value for KRAS): A (a compound having 10 or more and less than 20 is denoted as A)

## CCO[C@@H]1C[C@H]2C(=O)NC3(CC(C)(C)C3)C(=O)N(C)[C@@H](C(CC)CC)C(=O)N(C)[C@H](C(=O)N(C)C)CC(=O)N(C)[C@@H](CC(C)C)C(=O)N[C@@H]([C@@H](C)CC)C(=O)N(C)CC(=O)N(C)[C@H]3C/C=C\CCN(C3=O)[C@@H](Cc3ccc(C)cc3)C(=O)N(C)CC(=O)N[C@@H](CCc3ccc(Cl)c(Cl)c3)C(=O)N2C1 [PP2185]
[1]; SPR, Single Cycle Kinetics
  Kd: 0.71 nM
[2]
  HRAS/KRAS (ratio of KD value for HRAS to KD value for KRAS): A (a compound having 10 or more and less than 20 is denoted as A)
[3]
  NRAS/KRAS (ratio of KD value for NRAS to KD value for KRAS): AA (a compound having 20 or more is denoted as AA)
